# Values of other authors in patent publication US11992546B2, “Process of coloring keratinous material comprising the use of an organosilicon compound, an effect pigment, and a sealing reagent vi” (Henkel AG & Co. KGaA, priority 2019, dated 2024).
# Read-outs that look alike come from different tables or passages of the source.
solubility in water (at 25° C.),Structure (SMILES),solubility in water (25° C.)
–,"O=S(=O)([O-])c1ccc(N=Nc2c(O)ccc3ccccc23)cc1.[Na+] [Acid Orange 7, sodium salt of 4-[(2-hydroxy-1-naphthyl)azo]benzene sulphonate]",more than 7 g/L
–,"Nc1cc(S(=O)(=O)[O-])cc2cc(S(=O)(=O)[O-])c(N=Nc3ccccc3)c(O)c12.[Na+].[Na+] [Acid Red 33, disodium salt of 5-amino-4-hydroxy-3-(phenylazo)-naphthalene-2,7-disulphonate]",2500 µg/mL
–,"O=C([O-])c1c(Cl)c(Cl)c(Cl)c(Cl)c1-c1c2c(Br)cc(=O)c(Br)c-2oc2c(Br)c(O)cc(Br)c12.O=C([O-])c1c(Cl)c(Cl)c(Cl)c(Cl)c1-c1c2c(Br)cc(=O)c(Br)c-2oc2c(Br)c(O)cc(Br)c12.[Na+].[Na+] [Acid Red 92, disodium salt of 3,4,5,6-tetrachloro-2-(1,4,5,8-tetrabromo-6-hydroxy-3-oxoxanthen-9-yl)benzoic acid]",greater than 10 g/L
highly soluble,"O=C([O-])C1=NN(c2ccc(S(=O)(=O)[O-])cc2)C(=O)C1N=Nc1ccc(S(=O)(=O)[O-])cc1.[Na+].[Na+].[Na+] (stereo not shown) [Acid Yellow 23, trisodium salt of 4,5-dihydro-5-oxo-1-(4-sulfophenyl)-4-((4-sulfophenyl)azo)-1H-pyrazole-3-carboxylic acid]",–
